According to ChEMBL document CHEMBL4265943, “Design and synthesis of potent dual inhibitors of JAK2 and HDAC based on fusing the pharmacophores of XL019 and vorinostat” (Eur J Med Chem, 2018):

Key:
[1] = target: T1, Tyrosine-protein kinase JAK2 (Homo sapiens, UniProt O60674); experiment: Inhibition of human JAK2 at 10 uM using poly(Glu:Tyr)(4:1) as substrate preincubated for 20 mins followed by [gamma33P]ATP addition measured after 120 mins by ion exchange filter paper method relative to control
T1 sequence (O60674 whole entry): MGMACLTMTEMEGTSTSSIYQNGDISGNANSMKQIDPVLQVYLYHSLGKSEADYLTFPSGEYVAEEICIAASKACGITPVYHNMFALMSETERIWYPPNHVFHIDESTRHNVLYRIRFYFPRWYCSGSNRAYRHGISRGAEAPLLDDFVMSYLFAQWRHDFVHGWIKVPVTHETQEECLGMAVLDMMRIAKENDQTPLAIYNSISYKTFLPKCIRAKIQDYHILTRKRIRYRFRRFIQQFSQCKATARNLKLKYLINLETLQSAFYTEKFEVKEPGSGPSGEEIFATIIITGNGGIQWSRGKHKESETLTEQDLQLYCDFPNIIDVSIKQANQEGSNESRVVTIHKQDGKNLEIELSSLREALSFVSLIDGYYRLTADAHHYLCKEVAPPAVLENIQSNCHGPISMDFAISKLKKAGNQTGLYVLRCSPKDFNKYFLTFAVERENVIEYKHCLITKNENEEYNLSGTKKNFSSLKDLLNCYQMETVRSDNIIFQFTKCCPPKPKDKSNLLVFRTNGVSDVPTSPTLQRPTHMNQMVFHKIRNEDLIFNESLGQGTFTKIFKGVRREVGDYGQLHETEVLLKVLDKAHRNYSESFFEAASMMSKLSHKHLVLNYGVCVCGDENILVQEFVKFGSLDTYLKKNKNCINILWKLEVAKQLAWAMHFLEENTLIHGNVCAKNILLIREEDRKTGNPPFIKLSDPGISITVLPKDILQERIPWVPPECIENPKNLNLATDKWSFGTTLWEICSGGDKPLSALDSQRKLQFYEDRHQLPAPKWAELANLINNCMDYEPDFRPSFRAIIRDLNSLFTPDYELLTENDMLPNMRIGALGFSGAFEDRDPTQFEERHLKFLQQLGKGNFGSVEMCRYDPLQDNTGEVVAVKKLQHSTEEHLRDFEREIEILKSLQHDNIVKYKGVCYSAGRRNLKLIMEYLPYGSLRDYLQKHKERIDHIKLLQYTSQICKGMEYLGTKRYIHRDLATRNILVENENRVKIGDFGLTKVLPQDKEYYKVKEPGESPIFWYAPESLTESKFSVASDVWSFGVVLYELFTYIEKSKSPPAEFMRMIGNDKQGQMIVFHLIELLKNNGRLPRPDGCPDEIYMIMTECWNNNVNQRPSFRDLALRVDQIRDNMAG

[2] = Selectivity index, ratio of CC50 for mouse TAMH cells to IC50 for human Jurkat cells; type: toxicity; details: TAMH cells (CC50) and Jurkat cells (IC50)
Jurkat = experiment: Antiproliferative activity against human Jurkat cells after 72 hrs by MTT assay; type: functional, cell-based
HEL 92.1.7 = experiment: cells; type: functional, cell-based; details: Homo sapiens, HEL 92.1.7, 72 h
Description: Antiproliferative activity against human HEL 92.1.7 cells after 72 hrs by MTT assay

[3] = Selectivity index, ratio of CC50 for mouse TAMH cells to IC50 for human HEL 92.1.7 cells; type: toxicity; details: TAMH cells (CC50) and HEL 92.1.7 cells (IC50)
[4] = Selectivity index, ratio of CC50 for mouse TAMH cells to IC50 for human KMS-12-BM cells; type: toxicity; details: TAMH cells (CC50) and KMS-12-BM cells (IC50)
[5] = Selectivity index, ratio of CC50 for human AC10 cells to IC50 for human HEL 92.1.7 cells; type: toxicity; details: AC10 cells (CC50) and HEL 92.1.7 cells (IC50)
[6] = Selectivity index, ratio of CC50 for mouse TAMH cells to IC50 for human HCT116 cells; type: toxicity; details: TAMH cells (CC50) and HCT116 cells (IC50)
[7] = target: T2, Protein deacetylase HDAC6 (Homo sapiens, UniProt Q9UBN7); experiment: Inhibition of HDAC6 (unknown origin) using Arg-His-Lys-Lys(Ac) as substrate preincubated with enzyme followed by substrate addition for 2 hrs and measured for 1.5 hrs at 15 mins time interval by fluorescence assay
T2 sequence (Q9UBN7 whole entry): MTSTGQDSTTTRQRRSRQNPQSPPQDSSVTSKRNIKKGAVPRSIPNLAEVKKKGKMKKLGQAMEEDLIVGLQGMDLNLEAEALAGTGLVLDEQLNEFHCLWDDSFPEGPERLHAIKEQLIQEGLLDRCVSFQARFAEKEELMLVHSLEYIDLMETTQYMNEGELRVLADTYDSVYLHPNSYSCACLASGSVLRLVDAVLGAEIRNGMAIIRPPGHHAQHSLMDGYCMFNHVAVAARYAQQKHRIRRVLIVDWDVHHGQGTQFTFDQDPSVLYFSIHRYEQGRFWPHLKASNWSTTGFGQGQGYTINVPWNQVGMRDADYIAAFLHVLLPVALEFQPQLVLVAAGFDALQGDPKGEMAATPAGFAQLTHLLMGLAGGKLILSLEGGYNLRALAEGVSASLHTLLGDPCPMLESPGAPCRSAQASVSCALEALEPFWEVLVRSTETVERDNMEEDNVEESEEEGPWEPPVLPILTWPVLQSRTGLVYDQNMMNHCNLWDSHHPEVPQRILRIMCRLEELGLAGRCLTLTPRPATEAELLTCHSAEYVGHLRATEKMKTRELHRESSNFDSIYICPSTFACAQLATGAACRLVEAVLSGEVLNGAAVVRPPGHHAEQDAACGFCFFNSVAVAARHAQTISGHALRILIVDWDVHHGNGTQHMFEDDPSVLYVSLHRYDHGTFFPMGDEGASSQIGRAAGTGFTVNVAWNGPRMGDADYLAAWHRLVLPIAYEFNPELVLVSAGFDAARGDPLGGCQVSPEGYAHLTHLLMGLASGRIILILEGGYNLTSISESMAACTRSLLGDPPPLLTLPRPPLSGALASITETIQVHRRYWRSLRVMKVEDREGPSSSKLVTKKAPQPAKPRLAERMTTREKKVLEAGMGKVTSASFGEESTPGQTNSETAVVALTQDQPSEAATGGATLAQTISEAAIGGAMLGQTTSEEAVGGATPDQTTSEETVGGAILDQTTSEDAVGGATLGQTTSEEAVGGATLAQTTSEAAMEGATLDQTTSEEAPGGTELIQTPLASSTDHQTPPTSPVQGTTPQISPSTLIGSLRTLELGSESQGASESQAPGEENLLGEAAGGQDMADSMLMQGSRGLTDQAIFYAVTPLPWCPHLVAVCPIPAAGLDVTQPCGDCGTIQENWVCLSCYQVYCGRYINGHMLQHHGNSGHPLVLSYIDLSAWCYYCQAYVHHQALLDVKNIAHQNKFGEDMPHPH

[8] = Selectivity index, ratio of CC50 for mouse TAMH cells to IC50 for human MDA-MB-231 cells; type: toxicity; details: TAMH cells (CC50) and MDA-MB-231 cells (IC50)
[9] = Selectivity index, ratio of CC50 for human AC10 cells to IC50 for human XG6 cells; type: toxicity; details: AC10 cells (CC50) and XG6 cells (IC50)
PC-3 = experiment: Antiproliferative activity against human PC3 cells after 72 hrs by MTT assay; type: functional, cell-based; details: PC-3, 72 h
[10] = Selectivity index, ratio of CC50 for human AC10 cells to IC50 for human HCT116 cells; type: toxicity; details: AC10 cells (CC50) and HCT116 cells (IC50)
[11] = Antiproliferative activity against human XG6 cells after 72 hrs by MTT assay; type: functional, cell-based; details: XG6, 72 h
MCF7 = experiment: Antiproliferative activity against human MCF7 cells after 72 hrs by MTT assay; type: functional, cell-based; details: MCF7, 72 h
[12] = Selectivity index, ratio of CC50 for human AC10 cells to IC50 for human Jurkat cells; type: toxicity; details: AC10 cells (CC50) and Jurkat cells (IC50)
KMS-12-BM = experiment: Antiproliferative activity against human KMS-12-BM cells after 72 hrs by MTT assay; type: functional, cell-based
[13] = Selectivity index, ratio of CC50 for mouse TAMH cells to IC50 for human MCF7 cells; type: toxicity; details: TAMH cells (CC50) and MCF7 cells (IC50)
[14] = target: T1, Tyrosine-protein kinase JAK2; experiment: Inhibition of human JAK2 using poly(Glu:Tyr)(4:1) as substrate preincubated for 20 mins followed by [gamma33P]ATP addition measured after 120 mins by ion exchange filter paper method
[15] = Selectivity index, ratio of CC50 for human AC10 cells to IC50 for human MDA-MB-231 cells; type: toxicity; details: AC10 cells (CC50) and MDA-MB-231 cells (IC50)
[16] = Selectivity index, ratio of CC50 for mouse TAMH cells to IC50 for human XG6 cells; type: toxicity; details: TAMH cells (CC50) and XG6 cells (IC50)
[17] = Selectivity index, ratio of CC50 for human AC10 cells to IC50 for human PC3 cells; type: toxicity; details: AC10 cells (CC50) and PC3 cells (IC50)
[18] = Antiproliferative activity against human AC10 cells after 72 hrs by MTT assay; type: cell-based
[19] = Selectivity index, ratio of CC50 for human AC10 cells to IC50 for human MCF7 cells; type: toxicity; details: AC10 cells (CC50) and MCF7 cells (IC50)
HCT-116 = experiment: Antiproliferative activity against human HCT116 cells after 72 hrs by MTT assay; type: functional, cell-based; details: HCT-116, 72 h
[20] = Selectivity index, ratio of CC50 for mouse TAMH cells to IC50 for human PC3 cells; type: toxicity; details: TAMH cells (CC50) and PC3 cells (IC50)
[21] = Antiproliferative activity against mouse TAMH cells after 72 hrs by MTT assay; type: cell-based
[22] = Selectivity index, ratio of CC50 for human AC10 cells to IC50 for human KMS-12-BM cells; type: toxicity; details: AC10 cells (CC50) and KMS-12-BM cells (IC50)
Histone deacetylase 1 = Histone deacetylase 1 (Homo sapiens, UniProt Q13547); experiment: Inhibition of HDAC1 (unknown origin) using Arg-His-Lys-Lys(Ac) as substrate preincubated with enzyme followed by substrate addition for 2 hrs and measured for 1.5 hrs at 15 mins time interval by fluorescence assay
Chain of Histone deacetylase 1 (Q13547 whole entry): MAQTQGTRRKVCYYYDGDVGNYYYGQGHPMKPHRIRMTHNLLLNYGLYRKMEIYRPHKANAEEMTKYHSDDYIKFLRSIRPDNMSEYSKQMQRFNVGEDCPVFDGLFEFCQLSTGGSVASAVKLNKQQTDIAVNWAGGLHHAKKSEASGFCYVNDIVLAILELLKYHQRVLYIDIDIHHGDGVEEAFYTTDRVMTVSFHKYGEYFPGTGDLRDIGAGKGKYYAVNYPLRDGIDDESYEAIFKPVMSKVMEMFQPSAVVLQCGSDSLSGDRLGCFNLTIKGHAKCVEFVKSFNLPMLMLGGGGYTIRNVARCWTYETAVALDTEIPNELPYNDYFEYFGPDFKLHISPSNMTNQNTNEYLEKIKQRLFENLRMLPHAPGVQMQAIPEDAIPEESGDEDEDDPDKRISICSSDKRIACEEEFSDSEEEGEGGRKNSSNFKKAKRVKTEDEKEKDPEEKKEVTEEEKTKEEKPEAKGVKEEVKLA

MDA-MB-231 = experiment: Antiproliferative activity against human MDA-MB-231 cells after 72 hrs by MTT assay; type: functional, cell-based; details: MDA-MB-231, 72 h

| Structure (SMILES) | selectivity ratio [2] | IC50 (Jurkat) | IC50 (HEL 92.1.7) | selectivity ratio [3] | selectivity ratio [4] | selectivity ratio [5] | selectivity ratio [6] | IC50 [7] | selectivity ratio [8] | selectivity ratio [9] | IC50 (PC-3) | selectivity ratio [10] | IC50 [11] | IC50 (MCF7) | selectivity ratio [12] | IC50 (KMS-12-BM) | selectivity ratio [13] | IC50 [14] | selectivity ratio [15] | selectivity ratio [16] | further results |
| --- | --- | --- | --- | --- | --- | --- | --- | --- | --- | --- | --- | --- | --- | --- | --- | --- | --- | --- | --- | --- | --- |
| CC(=O)Nc1ccc(-c2ccnc(NCCc3ccccc3)n2)cc1 | – | – | – | – | – | – | – | – | – | – | – | – | – | – | – | – | – | – | – | – | inhibition [1]: 6.22% |
| CC(=O)Nc1ccc(-c2ccnc(Nc3cccc(OCCCCCCC(=O)NO)c3)n2)cc1 | 6.65 | 1060 nM | 970 nM | 7.24 | 20.1 | 3.08 | 10.6 | 1.8 nM | 3.99 | 0.64 | 1890 nM | 4.53 | 4690 nM | 2420 nM | 2.92 | 350 nM | 2.9 | 3.6 nM | 1.7 | 1.5 | selectivity ratio [17]: 1.58; CC50 at 72 h [18]: 2990 nM; selectivity ratio [19]: 1.24; IC50 (HCT-116): 660 nM; selectivity ratio [20]: 3.71; CC50 at 72 h [21]: 7020 nM; selectivity ratio [22]: 8.54; IC50 (Histone deacetylase 1): 83 nM; IC50 (MDA-MB-231): 1760 nM |
| CC(=O)Nc1ccc(-c2ccnc(Nc3ccccc3)n2)cc1 | – | – | – | – | – | – | – | – | – | – | – | – | – | – | – | – | – | 27.4 nM | – | – | inhibition [1]: 96.4% |
| CC(=O)Nc1ccc(-c2ccnc(Nc3ccc(OCCCCCCC(=O)NO)cc3)n2)cc1 | 2.07 | 1770 nM | 1510 nM | 2.42 | 36.6 | 1.58 | 3.7 | 3 nM | 2.35 | 1.15 | 1470 nM | 2.41 | 2080 nM | 810 nM | 0.89 | 100 nM | 4.52 | 23 nM | 1.53 | 1.76 | selectivity ratio [17]: 1.63; CC50 at 72 h [18]: 2390 nM; selectivity ratio [19]: 2.95; IC50 (HCT-116): 990 nM; selectivity ratio [20]: 2.49; CC50 at 72 h [21]: 3660 nM; selectivity ratio [22]: 23.9; IC50 (Histone deacetylase 1): 145 nM; IC50 (MDA-MB-231): 1560 nM |
| CC(=O)Nc1ccc(-c2ccnc(Nc3cccc(OCCCCCCCC(=O)NO)c3)n2)cc1 | < 0.28 | > 10000 nM | 3340 nM | 0.83 | 4.07 | > 30 | 1.83 | 6.7 nM | 0.77 | > 13.9 | 1640 nM | > 66.2 | 7220 nM | 1220 nM | 3 | 680 nM | 2.27 | 17 nM | > 27.7 | 0.38 | selectivity ratio [17]: > 61; CC50 at 72 h [18]: > 100000 nM; selectivity ratio [19]: > 82; IC50 (HCT-116): 1510 nM; selectivity ratio [20]: 1.69; CC50 at 72 h [21]: 2770 nM; selectivity ratio [22]: > 147; IC50 (Histone deacetylase 1): 1040 nM; IC50 (MDA-MB-231): 3610 nM |
| CC(=O)Nc1ccc(-c2ccnc(NCc3ccccc3)n2)cc1 | – | – | – | – | – | – | – | – | – | – | – | – | – | – | – | – | – | – | – | – | inhibition [1]: 3.85% |
| CC(=O)Nc1ccc(-c2ccnc(Nc3cccc(OCCCCCC(=O)NO)c3)n2)cc1 | 7.45 | 1190 nM | 1830 nM | 4.85 | 44.3 | 1.61 | 11.2 | 2.4 nM | 7.15 | 0.79 | 1660 nM | 3.71 | 3700 nM | 2550 nM | 1.35 | 200 nM | 3.47 | 3.4 nM | 2.36 | 2.39 | selectivity ratio [17]: 1.77; CC50 at 72 h [18]: 2930 nM; selectivity ratio [19]: 1.15; IC50 (HCT-116): 790 nM; selectivity ratio [20]: 5.34; CC50 at 72 h [21]: 8860 nM; selectivity ratio [22]: 14.7; IC50 (Histone deacetylase 1): 637 nM; IC50 (MDA-MB-231): 1240 nM |
